# Measured values taken from PMC12055592, “Post-symptomatic NLRP3 inhibition rescues cognitive impairment and mitigates amyloid and tau driven neurodegeneration” (Npj Dementia, 2025).
# Assays:
# 5XFAD/Rubicon KO mice [1] = experiment: Brain cytokine/chemokine quantification (ECLIA) in 5XFAD/Rubicon KO mice; type: in vivo, mouse; details: 9 weeks PO QD
# Experimental: (§1) 5XFAD/Rubicon KO mice received vehicle (0.5% w/v methylcellulose/0.1% w/v Tween® 80 in water) or VEN-02XX (0.01, 1, or 20 mg/kg) every day by oral gastric gavage for 9 weeks.
# Brain tissue was homogenized in PBS, pH 7.4 with 1X Halt™ protease inhibitor cocktail (Thermo Fisher Scientific, Waltham, MA) using a Bead Ruptor homogenizer (Omni International, Kennesaw, GA). Homogenates were clarified by centrifugation at 10,000 × g for 10 min. The crude homogenate was used for quantification of VEN-02XX levels, as described below. Total protein concentrations were quantified from clarified supernatants in a Pierce BCA protein assay (Thermo Fisher Scientific). Cytokine and chemokine levels were quantified using an electrochemiluminescence immunoassay (ECLIA) for IL-1β (total), TNFα, IL-6 and IP-10 (U-PLEX Custom Biomarker Group 1 (mouse) assay, Meso Scale Discovery, Rockville, MD) following the manufacturer’s instructions. Neurofilament light chain plasma levels were quantified using an enzyme-linked immunosorbent assay (ELISA) from Uman Diagnostics (CAT#: 20-8002) following the manufacturer’s instructions.
# NLRP1 = NLRP1 in vitro selectivity assay (Normal Human Epidermal Keratinocytes, Val-boroPro, IL-1β); type: cell-based; details: n = 2; top concentration 50 µM
# Experimental: Normal Human Epidermal Keratinocytes pooled from juvenile donors (PromoCell, Heidelberg, Germany) were cultured in Keratinocyte Growth Medium 2 (PromoCell). Cells were seeded at 12,000 cells/well in a 96-well cell culture plate and incubated for 16 h at 37 °C with 5% CO2. The next day, the media was replaced with fresh media, and cells were pre-incubated for 60 min with VEN-02XX (top concentration 50 µM; 5-fold titration) before the addition of Val-boroPro mesylate (MedChemExpress, Monmouth Junction, NJ) at a final concentration of 7.5 µM. After a 30-h incubation at 37 °C with 5% CO2, supernatants were collected and IL-1β levels were determined in an electrochemiluminescence immunoassay (Mesoscale Discovery).
# 5XFAD/Rubicon KO mice [2] = experiment: Sucrose preference test in 5XFAD/Rubicon KO mice; type: in vivo, mouse
# Experimental: as §1
# Basal preference to sucrose was first assessed on all enrolled mice. Individually housed mice were acclimated to the testing room for 48 h and to the two-bottle setup, where both bottles contained water, for 3 days. A 2% sucrose solution replaced the water in one bottle, and water consumption was measured for 4 consecutive days, while rotating the position of the sucrose-containing bottle. At the end of the testing period, both bottles were measured, and sucrose preference was calculated by dividing the intake from the sucrose bottle by the intake from both bottles, expressed as the percentage of sucrose preference. Preference to sucrose was re-assessed at 6- and 9-weeks following dosing with VEN-02XX. The test was performed as described above, with one bottle switched for 3% sucrose water. As before, bottles were rotated daily to reduce bias and leakage concerns, and the consumption was monitored for 4 days.
# [3] = test system: NLRP3 inflammasome, IL-18 in iPSC-derived microglia; experiment: iPSC-derived microglia in vitro assay, secreted IL-18; type: cell-based; details: geometric mean, n = 5
# Experimental: iPSC-derived microglia (BX-0900, BrainXell, Madison, WI) were thawed and recovered as per the supplier’s instructions. Briefly, viable cells were counted post-thaw using Trypan Blue, 0.4% (Thermo Fisher Scientific) and 25,000 cells were seeded on poly-d-lysine coated 96-well plates in DMEM-F/12 medium (Thermo Fisher Scientific) supplemented with 1X B-27 supplement (Thermo Fisher Scientific), 1X N-2 supplement (Thermo Fisher Scientific), 1X Non-essential amino acids (Thermo Fisher Scientific), 1X Chemically defined lipid mix (Thermo Fisher Scientific), 1 mM GlutaMax (Thermo Fisher Scientific), 0.2 mM Ascorbic Acid (Millipore), 100 ng/mL IL-34 (PeproTech, Cranbury, NJ), 2 ng/mL TGF-β1 (PeproTech) and 20 ng/mL M-CSF (PeproTech). Fresh media was added 3 days after seeding, half of which was replenished with fresh media 6 days following seeding. The assay was performed 7 days after cells were seeded in 96-well plates. Two assay protocol variations were performed: cells were either pre-treated with VEN-02XX to block NLRP3 inflammasome formation and then primed with LPS (Fig. 1, D. Compound added before LPS priming) or were primed with LPS and then treated with VEN-02XX (Fig. 1, D. Compound added after LPS priming). For compound treatment, cells were treated with VEN-02XX for 1 h (top concentration 100 µM; 3-fold titration) to block NLRP3 inflammasome formation. […]
structure (smiles),measurement,setting,value
CC(C)(O)CNc1nnc(-c2ccc(Cl)cc2C(F)(F)F)c2ccncc12 [VEN-02XX],"hippocampal IL-1β (total), IL-6, IP-10 and TNFα levels","5XFAD/Rubicon KO mice [1]; 20 mg/kg, levels comparable to WT, lack of statistical significance",notable reduction in all measured inflammatory markers
same,hippocampal IL-1β,5XFAD/Rubicon KO mice [1],almost complete ablation of IL-1β within the hippocampus
same,block of IL-1β release downstream of NLRP1,NLRP1,inability to block IL-1β release
same,water consumption,"5XFAD/Rubicon KO mice [2]; 6 and 9 weeks, sucrose preference test",no changes in water consumption
same,sucrose preference (anhedonia),"5XFAD/Rubicon KO mice [2]; 6 weeks post-dose initiation, 20 mg/kg PO QD",significant improvement
same,sucrose preference (anhedonia),"5XFAD/Rubicon KO mice [2]; 6 weeks post-dose initiation, lower doses (0.01, 1 mg/kg) PO QD",trending reversal in the pre-dosing anhedonia
same,sucrose preference (anhedonia),"5XFAD/Rubicon KO mice [2]; 9 weeks, 1 mg/kg and 20 mg/kg PO QD, dose-dependent",significant improvements
same,IC50,[3]; compound added after LPS priming,220 nM
same,IC50,[3]; compound added before LPS priming,280 nM
